# According to patent US11458144B1, “Methods for using 5-HMF analogs with increased solubility to inhibit or reverse RBC sickling” (King Abdulaziz University, priority 2021, dated 2022):
# Key:
# [1] = tested on: SS RBCs; assay: Antisickling study (RBC morphology) in SS blood under hypoxia; type: cell-based, human; conditions: 2 mM; for inhibition at 2000 µM: Homo sapiens, SS blood hematocrit 20%, 2.5% O2, 37° C., read-out: % Sickling inhibition
# Procedure: (§1) The effect of the MMA compounds and positive control 5-HMF on RBC sickling, Hb modification, and Hb oxygen equilibrium was studied utilizing SS blood following previous procedure.^[27]
# For the antisickling study, SS blood (hematocrit 20%) were incubated under air in the absence or presence of all the MMA compounds (0.5 mM, 1 mM and 2 mM) at 37° C. for 1 h, followed by incubating the mixture under hypoxic conditions (2.5% O2) at 37° C. for 2 h. Aliquots with fixed 2% glutaraldehyde solution and under anaerobic condition were subjected to microscopic morphological analysis.^[11]
# (§2) Using homozygous sickle (SS) blood from patients, the MMA compounds (MMA502, MMA503, MMA504, MMA505, and MMA509 were tested with 5-HMF as control for Hb adduct formation, effect on Hb affinity for oxygen and corresponding antisickling activities (RBC morphology study) using previously published protocols.^14,15
# [2] = molecular target: T1, Hb (Homo sapiens, UniProt P68871+P69905, E7V); assay: Hb adduct formation (Hb modification) by cation-exchange HPLC, SS blood lysates; type: binding; conditions: SS RBCs
# T1 construct: Using homozygous sickle (SS) blood from patients; endogenous in cells; host or cells: red blood cells of homozygous SS patient blood (hematocrit 20%); clarified lysates measured after incubation
# Description: as §1
# The Hb adduct formation study also used clarified lysates that were subjected to a cation-exchange HPLC (Hitachi D-7000 Series, Hitachi Instruments, Inc., San Jose, Calif.), and a weak cation-exchange column (Poly CAT A: 30 mm×4.6 mm, Poly LC, Inc., Columbia, Md.).
# as §2
# [3] = molecular target: T1, Hb; assay: Oxygen equilibrium study (P50 shift) of lysates from SS blood, Hemox Analyzer; type: cell-based; conditions: SS RBCs
# Procedure: as §1
# For the oxygen equilibrium study, about 100 μL aliquot of clarified lysate of residual samples from the above antisickling study was added to 4 mL of 0.1 M potassium phosphate buffer, pH 7.0, in cuvettes and subjected to hemoximetry analysis using Hemox™ Analyzer (TCS Scientific Corp., New Hope, Pa.) to assess P50 shift, which is the partial pressure of oxygen (PO2) at which 50% of Hb is saturated with oxygen (SO2). Degree of Hb O2 affinity shift (ΔP50) was expressed as percentage fractions of control DMSO-treated samples.
# as §2
# [4] = molecular target: T2, HbA (Homo sapiens, UniProt P68871+P69905); assay: Time-dependent Hb oxygen equilibrium study in normal whole blood; type: cell-based; conditions: 2 mM, 20% hematocrit
# T2 construct: time-dependent P50-shift of HbA in normal blood (20% hematocrit); endogenous in cells; host or cells: red blood cells in normal whole blood of adult donors (hematocrit 20%)
# Procedure: The time-dependent effect of the MMA compounds and positive control 5-HMF on Hb oxygen affinity was studied using normal blood following previous procedure.^[15] Briefly, normal blood samples (hematocrit 20%) were incubated with the compounds at 37° C. for 24 h. Aliquots were taken at various time points and incubated in IL 237 tonometers (Instrumentation Laboratories, Inc. Lexington, Mass.) for 10 minutes at 37° C., and allowed to equilibrate at oxygen tensions 6, 20, and 40 mmHg. The samples were then aspirated into an ABL 700 Automated Blood Gas Analyzer (Radiometer) to determine the pH, partial pressure of CO2 (pCO2), partial pressure of oxygen (pO2), and Hb oxygen saturation values (SO2). The measured values of pO2 (mmHg) and SO2 at each pO2 value were then subjected to a non-linear regression analysis using the program Scientist (Micromath, Salt Lake City, Utah) to estimate P50 as previously reported.^[28]
# 5-HMF has a short half-life and poor oral bioavailability due to this metabolic instability, which in part prevented its development for chronic use. Nonetheless, this metabolic instability could be advantageous for parenteral formulation for acute use. […] Briefly, blood samples (hematocrit 20%) were incubated with the compounds at 37° C. for 24 h, and aliquots were taken at the various time points and used to determine the PO2 and SO2 using ABL 800 Automated Blood Gas Analyzer (Radiometer), and to estimate P50 as previously reported.^[10]
# The study confirmed the trend in the biological potencies observed with SS blood.
# [5] = tested on: human cytochrome P450 (CYP) enzymes; assay: In vitro CYP inhibition, panel of seven enzymes (overall statement); type: in vitro ADME; conditions: 0.1 to 100 μM; pooled human liver microsomes
# Procedure: The probe substrates include tacrine (CYP1A2), amodiaquine (CYP2C8), tolbutamide (CYP2C9), mephenytoin (CYP2C19), dextromethorphan (CYP2D6), midazolam (CYP3A4), testosterone (CYP3A4), and bupropion (CYP2B6). […] The assays were performed in duplicate in 96-well plates at 37° C. for 10-60 minutes. The reaction was terminated with addition of methanol, followed by incubation at 4° C. for 10 min and centrifuged at 4° C. for 10 min.
compound,measurement,setting,value
"O=Cc1ccc(N2CCC(O)CC2)o1 [MMA-504, 5-(4-hydroxypiperidin-1-yl)furan-2-carbaldehyde]",inhibition at 2000 µM,[1],27%
same,% Hb-modification (adduct formation),[2]; 0.5 mM,0.0 ± 0.0%
same,% Hb-modification (adduct formation),[2]; 1 mM,0.0 ± 1.0%
same,% Hb-modification (adduct formation),"[2]; 2 mM, listed as 504",0.4 ± 0.8%
same,% Hb-modification (adduct formation),"[2]; 2 mM, listed as MMA504",< 1%
same,% Hb-O2 affinity (P50 shift vs DMSO control),[3]; 0.5 mM,4.4 ± 5.1%
same,% Hb-O2 affinity (P50 shift vs DMSO control),[3]; 1 mM,5.3 ± 1.5%
same,% Hb-O2 affinity (P50 shift vs DMSO control),"[3]; 2 mM, listed as 504",2.7 ± 1.2%
same,% Hb-O2 affinity (P50 shift vs DMSO control),"[3]; 2 mM, listed as MMA504",3%
"N#Cc1ccc(C=O)o1 [MMA-505, 5-formylfuran-2-carbonitrile]",antisickling activity relative to 5-HMF,[1]; over 5-HMF,~2.5 fold
same,inhibition at 2000 µM,[1],55%
same,%P50 shift,[4]; at 1 hour,11%
same,duration of effect on Hb oxygen affinity,[4]; time course 0-8 hrs,completely losing activity after 3 hours
same,% Hb-modification (adduct formation),[2]; 0.5 mM,4.2 ± 1.6%
same,% Hb-modification (adduct formation),[2]; 1 mM,10.4 ± 2.6%
same,% Hb-modification (adduct formation),"[2]; 2 mM, listed as 505",26.7 ± 6.0%
same,% Hb-modification (adduct formation),"[2]; 2 mM, listed as MMA505",27%
same,% Hb-O2 affinity (P50 shift vs DMSO control),[3]; 0.5 mM,5.5 ± 1.2%
same,% Hb-O2 affinity (P50 shift vs DMSO control),[3]; 1 mM,14.6 ± 2.1%
same,% Hb-O2 affinity (P50 shift vs DMSO control),"[3]; 2 mM, listed as 505",32.0 ± 3.0%
same,% Hb-O2 affinity (P50 shift vs DMSO control),"[3]; 2 mM, listed as MMA505",40%
O=Cc1ccc(C2CCCCO2)o1 (stereo not shown) [MMA-509],%P50 shift,[4]; at 1.5 hours,60%
same,% Hb-modification (adduct formation),[2]; 0.5 mM,16.2 ± 0.0%
same,% Hb-modification (adduct formation),[2]; 1 mM,27.6 ± 3.6%
same,% Hb-modification (adduct formation),"[2]; 2 mM, listed as 509",53.3 ± 3.9%
same,% Hb-modification (adduct formation),"[2]; 2 mM, listed as MMA509",53%
same,% Hb-O2 affinity (P50 shift vs DMSO control),[3]; 0.5 mM,16.3 ± 1.5%
same,% Hb-O2 affinity (P50 shift vs DMSO control),[3]; 1 mM,34.5 ± 14.4%
same,% Hb-O2 affinity (P50 shift vs DMSO control),"[3]; 2 mM, listed as 509",58.5 ± 15.3%
same,% Hb-O2 affinity (P50 shift vs DMSO control),"[3]; 2 mM, listed as MMA509",59%
same,inhibition of liver CYP isozymes,[5],no inhibition
